The target in experiment [1] is T1, DDR1 kinase in DDR1-expressing U2OS cells (Homo sapiens, UniProt Q08345).
T1 construct: host or cells: U2OS
The experiment can be described thus: DDR1 kinase inhibitory effect in DDR1-expressing U2OS cells (PathHunter, type I collagen stimulation). Format: cell-based. As to conditions: type I collagen 50 μg/mL, 10% FBS, read-out: DDR-1 IC50. As to the method: Test compounds in DMSO were prepared at 10 mM and diluted with DMSO to final concentrations of 1000, 100, 10, 1, and 0.1 μM. These solutions were diluted further with E-MEM medium (Fujifilm Wako Pure Chemical Industries, 051-07615) containing 10% fetal bovine serum (FBS, Gibco, 10270106) to 60,000, 6,000, 600, 60, 6, and 0.6 nM to obtain test sample solutions.
DDR1-expressing U2OS cells (DiscoverX, 93-0894C3) suspended at 2.5×10^5 cells/mL in 10% FBS+E-MEM medium were seeded in 384-well plates (DiscoverX, 92-0013) in 20 μL portions and cultured overnight at 37° C. and 5% CO2.
The next day, the test sample solutions as prepared were added at 5 μL/well to final concentrations of 10,000, 1,000, 100, 10, 1, and 0.1 nM. After incubation at 37° C. and 5% CO2 for 1 hour, type I collagen (Nitta Gelatin, 631-00771) was added at 5 μL/well to a final concentration of 50 μg/mL, and cultured overnight at 37° C. and 5% CO2.
The next day, the plate was left at room temperature for 1 hour, after which 5 μL/well of detection solution was added according to the instruction manual for the PathHunter (registered trademark) Detection Kit (DiscoverX, 93-0001). […] The test was performed in duplicate.

Experiment [2] addresses T2, DDR1 protein (Homo sapiens, UniProt Q08345).
T2 construct: purchased Carna Biosciences 08-113
The experiment can be described thus: Evaluation of DDR1 kinase inhibitory activity (LANCE Ultra TR-FRET). Format: biochemical. As to conditions: DDR1 protein 0.5 nM, ATP 100 μM, 2 hours at room temperature; read-out: DDR-1 IC50. On the procedure: The test was performed in duplicate.
Background: In TR-FRET formats the signal depends on donor and acceptor labels being close together.

Experiment [3] relates to anti-glomerular basement membrane antibody-induced nephritis model. In words: In vivo efficacy study using anti-glomerular basement membrane antibody-induced nephritis model. Set-up: species or system WKY/NCrlCrlj rats. The settings on record: rat, 24-hour urine. On the procedure:
The test compound was weighed and suspended in 0.5% methylcellulose (Shin-Etsu Chemical Co., Ltd.)+99.5% Otsuka distilled water (Otsuka Pharmaceutical Factory) to prepare a test sample solution for administration. 300 μL of phosphate buffered saline (Wako, 045-29795) containing 33.3 μg/mL anti-glomerular basement membrane antibody (Chondrex, 70221) was intravenously administered into the tail vein of WKY/NCrlCrlj rats (7-week-old males). 7 days after, the test sample was administered twice a day for 7 days, and the rats were moved to a metabolism/urine collection cage from the 6th to 7th days of the starting of the administration, and the 24-hour urine was collected. The weight of the collected urine was measured. 150 μL of urine was transferred to a sample cup (650-M, BMBio ST). The albumin concentration in urine was measured using a JCA-BM6050 automatic analyzer (JEOL). The amount of albumin in urine was determined with correction for the measured urine weight. The amounts of albumin in urine in the group without administration of anti-glomerular basement membrane antibody and the group with administration of vehicle were set at 0% and 100%, respectively, and the ratio of the amount of albumin in urine in the group administered with the test compound was calculated.

The text below walks through data of US20260242343A1, “COMPOUND SERVING AS DDR1 KINASE INHIBITOR, AND MEDICINE” (NIPPON SHINYAKU CO., LTD., priority 2022, published 2026).

By pIC50 is commonly meant the IC50 on a negative log10 scale, so that one unit is a factor of ten.

Structures are written as SMILES. pIC50: −log10 of the molar value.

T1 sequence (Q08345 19-913): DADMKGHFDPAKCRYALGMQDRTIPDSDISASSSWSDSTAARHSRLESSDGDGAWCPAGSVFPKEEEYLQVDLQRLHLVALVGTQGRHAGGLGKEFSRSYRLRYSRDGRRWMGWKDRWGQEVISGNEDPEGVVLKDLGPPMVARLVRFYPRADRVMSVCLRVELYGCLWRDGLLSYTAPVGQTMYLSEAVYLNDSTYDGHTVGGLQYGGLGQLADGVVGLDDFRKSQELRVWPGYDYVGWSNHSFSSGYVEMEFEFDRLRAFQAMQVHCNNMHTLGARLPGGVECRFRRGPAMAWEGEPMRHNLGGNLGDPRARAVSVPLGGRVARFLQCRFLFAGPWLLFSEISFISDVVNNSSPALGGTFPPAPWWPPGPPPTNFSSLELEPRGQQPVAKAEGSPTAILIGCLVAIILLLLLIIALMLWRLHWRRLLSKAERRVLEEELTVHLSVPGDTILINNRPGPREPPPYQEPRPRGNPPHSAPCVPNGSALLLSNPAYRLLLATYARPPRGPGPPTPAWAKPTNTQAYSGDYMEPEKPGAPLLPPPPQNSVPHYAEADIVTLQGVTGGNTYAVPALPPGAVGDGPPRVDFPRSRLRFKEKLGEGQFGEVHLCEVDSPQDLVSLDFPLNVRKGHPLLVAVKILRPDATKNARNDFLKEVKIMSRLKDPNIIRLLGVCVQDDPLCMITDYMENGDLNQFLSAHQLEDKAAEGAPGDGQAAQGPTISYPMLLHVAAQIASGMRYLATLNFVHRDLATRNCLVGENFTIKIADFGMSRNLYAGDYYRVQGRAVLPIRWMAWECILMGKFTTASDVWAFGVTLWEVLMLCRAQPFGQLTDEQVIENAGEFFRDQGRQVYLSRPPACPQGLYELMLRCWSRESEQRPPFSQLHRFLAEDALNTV
T2 sequence (Q08345 19-876 isoform Q08345-2 limits assumed): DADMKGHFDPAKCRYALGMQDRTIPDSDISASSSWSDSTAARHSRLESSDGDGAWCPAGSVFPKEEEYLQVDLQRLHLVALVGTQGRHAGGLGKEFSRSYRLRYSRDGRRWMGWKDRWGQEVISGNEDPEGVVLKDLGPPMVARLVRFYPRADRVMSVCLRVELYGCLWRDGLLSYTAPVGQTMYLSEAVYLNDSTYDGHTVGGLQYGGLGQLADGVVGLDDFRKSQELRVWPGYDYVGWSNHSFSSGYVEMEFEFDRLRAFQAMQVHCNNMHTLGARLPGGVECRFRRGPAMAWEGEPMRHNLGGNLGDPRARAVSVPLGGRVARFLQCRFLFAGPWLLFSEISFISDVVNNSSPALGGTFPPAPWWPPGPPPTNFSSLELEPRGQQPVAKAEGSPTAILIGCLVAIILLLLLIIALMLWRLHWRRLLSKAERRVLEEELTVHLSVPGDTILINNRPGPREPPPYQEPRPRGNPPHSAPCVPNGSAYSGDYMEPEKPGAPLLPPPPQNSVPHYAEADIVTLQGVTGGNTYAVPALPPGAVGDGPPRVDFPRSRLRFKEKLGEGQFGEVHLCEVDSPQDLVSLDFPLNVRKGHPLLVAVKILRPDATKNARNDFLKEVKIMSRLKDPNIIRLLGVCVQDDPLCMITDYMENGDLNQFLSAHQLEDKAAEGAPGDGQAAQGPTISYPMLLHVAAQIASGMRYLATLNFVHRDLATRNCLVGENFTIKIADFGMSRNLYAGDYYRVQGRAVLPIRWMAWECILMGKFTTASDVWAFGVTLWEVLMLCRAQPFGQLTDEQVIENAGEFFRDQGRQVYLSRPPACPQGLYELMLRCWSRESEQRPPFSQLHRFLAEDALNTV

Regarding `Nc1cnc(C#Cc2cc(C(=O)N[C@H](CO)CCOC(F)(F)F)ccc2OC(F)F)cn1` [Example 7, 3-[2-(5-Aminopyrazin-2-yl)ethynyl]-4-(difluoromethoxy)-N-[(2S)-1-hydroxy-4-(trifluoromethoxy)butan-2-yl]benzamide], the figures for the pIC50 in experiment [1] and in experiment [2] were 7.30 and 8.36, respectively. Besides, in experiment [3] (dose 30 mg/kg twice a day for 7 days), the “Urinary albumin (% of vehicle-administered group)” value was 69 % of vehicle-administered grou.
In the case of `Nc1cnc(/C(F)=C/c2cc(C(=O)N[C@H]3C[C@H](OC(F)(F)F)C[C@@H]3O)ccc2OC(F)F)cn1` [Example 10, 3-[(1Z)-2-(5-Aminopyrazin-2-yl)-2-fluoroethenyl]-4-(difluoromethoxy)-N-[(1S,2S,4S)-2-hydroxy-4-(trifluoromethoxy)cyclopentyl]benzamide], the pIC50 in experiment [1] is 7.14; in experiment [2], 8.92. In addition, in experiment [3] (dose 10 mg/kg twice a day for 7 days), the “Urinary albumin (% of vehicle-administered group)” value is given as 69 % of vehicle-administered grou.
On to `NC(=O)c1ncc2cc(-c3cc(C(=O)N[C@H]4CCCC[C@@H]4O)ccc3C(F)(F)F)ccn12` [Example 14, 7-(5-{[(1S,2S)-2-Hydroxycyclohexyl]carbamoyl}-2-(trifluoromethyl)phenyl)imidazo[1,5-a]pyridine-3-carboxamide], for which the figures for the negative-log IC50 (pIC50) in experiment [1] and in experiment [2] were 7.08 and 8.60, respectively. Further, the “Urinary albumin (% of vehicle-administered group)” value in experiment [3] (dose 50 mg/kg twice a day for 7 days) is 76 % of vehicle-administered grou.
